Assay results reported in patent US5405831A, “Treatment of bone disorders” (Amylin Pharmaceuticals, Inc., priority 1989, dated 1995).
Like-named read-outs stand apart in the source and are kept apart here.

Experiments:
rat osteoclasts [1] = assay: bone resorption assay (disaggregated rat osteoclasts on human cortical bone slices); settings: osteoclasts counted on hormone-treated versus control bone slices
Method: Following incubation (37° C.; 15 minutes), the bone slices were removed, washed gently in Minimal Essential Medium with FCS (10%, v/v) (MEM/FCS) and placed in separate wells (each well contained 5-6 slices and 900 μl MEM/FCS). Either one or two homogeneous suspensions of osteoclasts were used for each experiment. When two suspensions were used, the experiment was divided into two blocks, each of which included all treatments and one suspension. After further incubation (37° C., 10% humidified CO2, 10 minutes), 100 μl of MEM/FCS containing the test substance was added. Finally, bone slices were incubated overnight (37° C., 10% humidified CO2, 18 hours) and quantified in terms of cell numbers and bone resorption. After fixation in glutaraldehyde, cells were stained with toluidine blue and examined by transmitted light microscopy. In order to rule out toxic effects, osteoclasts were counted on three slices for every variable and their numbers were then compared on hormone-treated and control bone slices. […] Osteoclastic excavations, each defined by a continuous border within an area of unresorbed bone were counted. The area of bone surface resorbed was calculated by tracing the outline of the concavities into an image processor (Sight Systems, Newbury, Berks).

rat osteoclasts [2] = settings: Zaidi et al. 1988; cited from earlier work
chick = settings: higher doses; cited from earlier work
rabbit = settings: cited from earlier work
isolated osteoclasts = assay: functional responses of isolated osteoclasts (motility, cytosolic calcium, retraction); assay type: cell-based
Excerpt: Thus, it appears that osteoclast activity may be restrained via two receptor types; calcitonin acts at both while amylin acts mainly via only one, reducing motility, reducing resorption and probably acting via the second messenger cAMP (Zaidi et. al. 1990, J. Endocrinol 126, 473-481.

Compound: CC[C@H](C)[C@H](NC(=O)[C@H](C)NC(=O)CNC(=O)[C@H](Cc1ccccc1)NC(=O)[C@H](CC(N)=O)NC(=O)[C@H](CC(N)=O)NC(=O)[C@H](CO)NC(=O)[C@H](CO)NC(=O)[C@H](Cc1c[nH]cn1)NC(=O)[C@@H](NC(=O)[C@H](CC(C)C)NC(=O)[C@H](Cc1ccccc1)NC(=O)[C@H](CC(N)=O)NC(=O)[C@H](C)NC(=O)[C@H](CC(C)C)NC(=O)[C@H](CCCNC(=N)N)NC(=O)[C@H](CCC(N)=O)NC(=O)[C@@H](NC(=O)[C@H](C)NC(=O)[C@@H]1CSSC[C@H](NC(=O)[C@@H](N)CCCCN)C(=O)N[C@@H](CC(N)=O)C(=O)N[C@@H]([C@@H](C)O)C(=O)N[C@@H](C)C(=O)N[C@@H]([C@@H](C)O)C(=O)N1)[C@@H](C)O)C(C)C)C(=O)N[C@@H](CC(C)C)C(=O)N[C@@H](CO)C(=O)N[C@@H](CO)C(=O)N[C@H](C(=O)N[C@@H](CC(N)=O)C(=O)N[C@H](C(=O)NCC(=O)N[C@@H](CO)C(=O)N[C@@H](CC(N)=O)C(=O)N[C@H](C(=O)N[C@@H](Cc1ccc(O)cc1)C(N)=O)[C@@H](C)O)C(C)C)[C@@H](C)O [amylin]
- osteoclast cell number or viability (rat osteoclasts [1]): without affecting cell number of viability

Compound: CGRP
- osteoclastic bone resorption (rat osteoclasts [2]): inhibits osteoclastic bone resorption
- effect on plasma calcium (chick): parathyroid hormone-like hypercalcemic effect
- effect on plasma calcium (rabbit; rabbit, higher doses): parathyroid hormone-like hypercalcemic effect
- effect on plasma calcium (rabbit; rabbits, lower doses): hypocalcaemic

Compound: calcitonin
- cell retraction (isolated osteoclasts): caused cell retraction
- cytosolic calcium (isolated osteoclasts): elevated cytosolic calcium
- osteoclast motility (isolated osteoclasts): inhibited osteoclast motility
